# Assay results from patent US20250223268A1, “4-Methylsulfonylbenzamide Compound, Preparation Method, Herbicidal Composition And Use” (Jiangsu Flag Chemical Industry Co., Ltd., priority 2022, published 2025).
# Test system: Digitaria sanguinalis
# Experiment: Greenhouse herbicidal activity assay, post-emergence
# Format: in vivo
# Settings: Post-emergence test, rate 150 g a.i./hm^2; grade by fresh weight inhibition rate
# Procedure, shortened: (§1)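 Weeds and crops grown in pots of nutrient soil in a growth chamber to the 3-6 leaf stage, then foliar-sprayed and air-dried. Fresh weight inhibition scored 14-21 days after treatment and graded A (≥80%) through E (<20%).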
row,SMILES,"Control efficacy grade, Digitaria sanguinalis"
1,CC(C)[S+]([O-])c1c(S(C)(=O)=O)ccc(C(=O)Nc2nnco2)c1Cl (racemic) [Compound 3-273],A (Fresh weight inhibition rate≥80% to 100%)
2,CCCC[S+]([O-])c1c(S(C)(=O)=O)ccc(C(=O)Nc2nnco2)c1Cl (racemic) [Compound 3-278],A (Fresh weight inhibition rate≥80% to 100%)
3,CCC(C)Sc1c(S(C)(=O)=O)ccc(C(=O)Nc2nnco2)c1Cl (racemic) [Compound 3-282],B (Fresh weight inhibition rate≥260% to <80%)
4,CS(=O)(=O)c1ccc(C(=O)Nc2nnco2)c(Cl)c1[S+]([O-])CC1CC1 (racemic) [Compound 3-299],A (Fresh weight inhibition rate≥80% to 100%)
5,CS(=O)(=O)c1ccc(C(=O)Nc2nnco2)c(Cl)c1[S+]([O-])C1CC1 (racemic) [Compound 3-304],A (Fresh weight inhibition rate≥80% to 100%)
6,CS(=O)(=O)c1ccc(C(=O)Nc2nnco2)c(Cl)c1[S+]([O-])C1CCC1 (racemic) [Compound 3-309],A (Fresh weight inhibition rate≥80% to 100%)
7,CS(=O)(=O)c1ccc(C(=O)Nc2nnco2)c(Cl)c1[S+]([O-])C1CCCC1 (racemic) [Compound 3-314],A (Fresh weight inhibition rate≥80% to 100%)
8,CS(=O)(=O)c1ccc(C(=O)Nc2nnco2)c(Cl)c1[S+]([O-])C1CCCCC1 (racemic) [Compound 3-319],A (Fresh weight inhibition rate≥80% to 100%)

# Test system: Echinochloa crusgalli
# Experiment: as above
# Format: in vivo
# Settings: Post-emergence test, rate 150 g a.i./hm^2; grade by fresh weight inhibition rate
# Procedure, shortened: as §1
row,SMILES,"Control efficacy grade, Echinochloa crusgalli"
1,CC(C)[S+]([O-])c1c(S(C)(=O)=O)ccc(C(=O)Nc2nnco2)c1Cl (racemic) [Compound 3-273],A (Fresh weight inhibition rate≥80% to 100%)
2,CCCC[S+]([O-])c1c(S(C)(=O)=O)ccc(C(=O)Nc2nnco2)c1Cl (racemic) [Compound 3-278],A (Fresh weight inhibition rate≥80% to 100%)
3,CCC(C)Sc1c(S(C)(=O)=O)ccc(C(=O)Nc2nnco2)c1Cl (racemic) [Compound 3-282],A (Fresh weight inhibition rate≥80% to 100%)
4,CS(=O)(=O)c1ccc(C(=O)Nc2nnco2)c(Cl)c1[S+]([O-])CC1CC1 (racemic) [Compound 3-299],A (Fresh weight inhibition rate≥80% to 100%)
5,CS(=O)(=O)c1ccc(C(=O)Nc2nnco2)c(Cl)c1[S+]([O-])C1CC1 (racemic) [Compound 3-304],A (Fresh weight inhibition rate≥80% to 100%)
6,CS(=O)(=O)c1ccc(C(=O)Nc2nnco2)c(Cl)c1[S+]([O-])C1CCC1 (racemic) [Compound 3-309],A (Fresh weight inhibition rate≥80% to 100%)
7,CS(=O)(=O)c1ccc(C(=O)Nc2nnco2)c(Cl)c1[S+]([O-])C1CCCC1 (racemic) [Compound 3-314],A (Fresh weight inhibition rate≥80% to 100%)
8,CS(=O)(=O)c1ccc(C(=O)Nc2nnco2)c(Cl)c1[S+]([O-])C1CCCCC1 (racemic) [Compound 3-319],A (Fresh weight inhibition rate≥80% to 100%)

# Test system: Eclipta prostrata
# Experiment: as above
# Format: in vivo
# Settings: Post-emergence test, rate 150 g a.i./hm^2; grade by fresh weight inhibition rate
# Procedure, shortened: as §1
row,SMILES,"Control efficacy grade, Eclipta prostrata"
1,CC(C)[S+]([O-])c1c(S(C)(=O)=O)ccc(C(=O)Nc2nnco2)c1Cl (racemic) [Compound 3-273],A (Fresh weight inhibition rate≥80% to 100%)
2,CCCC[S+]([O-])c1c(S(C)(=O)=O)ccc(C(=O)Nc2nnco2)c1Cl (racemic) [Compound 3-278],A (Fresh weight inhibition rate≥80% to 100%)
3,CCC(C)Sc1c(S(C)(=O)=O)ccc(C(=O)Nc2nnco2)c1Cl (racemic) [Compound 3-282],A (Fresh weight inhibition rate≥80% to 100%)
4,CS(=O)(=O)c1ccc(C(=O)Nc2nnco2)c(Cl)c1[S+]([O-])CC1CC1 (racemic) [Compound 3-299],A (Fresh weight inhibition rate≥80% to 100%)
5,CS(=O)(=O)c1ccc(C(=O)Nc2nnco2)c(Cl)c1[S+]([O-])C1CC1 (racemic) [Compound 3-304],A (Fresh weight inhibition rate≥80% to 100%)
6,CS(=O)(=O)c1ccc(C(=O)Nc2nnco2)c(Cl)c1[S+]([O-])C1CCC1 (racemic) [Compound 3-309],A (Fresh weight inhibition rate≥80% to 100%)
7,CS(=O)(=O)c1ccc(C(=O)Nc2nnco2)c(Cl)c1[S+]([O-])C1CCCC1 (racemic) [Compound 3-314],A (Fresh weight inhibition rate≥80% to 100%)
8,CS(=O)(=O)c1ccc(C(=O)Nc2nnco2)c(Cl)c1[S+]([O-])C1CCCCC1 (racemic) [Compound 3-319],A (Fresh weight inhibition rate≥80% to 100%)

# Test system: Cyperus iria
# Experiment: as above
# Format: in vivo
# Settings: Post-emergence test, rate 150 g a.i./hm^2; grade by fresh weight inhibition rate
# Procedure, shortened: as §1
row,SMILES,"Control efficacy grade, Cyperus iria"
1,CC(C)[S+]([O-])c1c(S(C)(=O)=O)ccc(C(=O)Nc2nnco2)c1Cl (racemic) [Compound 3-273],A (Fresh weight inhibition rate≥80% to 100%)
2,CCCC[S+]([O-])c1c(S(C)(=O)=O)ccc(C(=O)Nc2nnco2)c1Cl (racemic) [Compound 3-278],A (Fresh weight inhibition rate≥80% to 100%)
3,CCC(C)Sc1c(S(C)(=O)=O)ccc(C(=O)Nc2nnco2)c1Cl (racemic) [Compound 3-282],A (Fresh weight inhibition rate≥80% to 100%)
4,CS(=O)(=O)c1ccc(C(=O)Nc2nnco2)c(Cl)c1[S+]([O-])CC1CC1 (racemic) [Compound 3-299],A (Fresh weight inhibition rate≥80% to 100%)
5,CS(=O)(=O)c1ccc(C(=O)Nc2nnco2)c(Cl)c1[S+]([O-])C1CC1 (racemic) [Compound 3-304],A (Fresh weight inhibition rate≥80% to 100%)
6,CS(=O)(=O)c1ccc(C(=O)Nc2nnco2)c(Cl)c1[S+]([O-])C1CCC1 (racemic) [Compound 3-309],A (Fresh weight inhibition rate≥80% to 100%)
7,CS(=O)(=O)c1ccc(C(=O)Nc2nnco2)c(Cl)c1[S+]([O-])C1CCCC1 (racemic) [Compound 3-314],A (Fresh weight inhibition rate≥80% to 100%)
8,CS(=O)(=O)c1ccc(C(=O)Nc2nnco2)c(Cl)c1[S+]([O-])C1CCCCC1 (racemic) [Compound 3-319],A (Fresh weight inhibition rate≥80% to 100%)

# Test system: Leptochloa chinensis
# Experiment: as above
# Format: in vivo
# Settings: Post-emergence test, rate 150 g a.i./hm^2; grade by fresh weight inhibition rate
# Procedure, shortened: as §1
row,SMILES,"Control efficacy grade, Leptochloa chinensis"
1,CC(C)[S+]([O-])c1c(S(C)(=O)=O)ccc(C(=O)Nc2nnco2)c1Cl (racemic) [Compound 3-273],A (Fresh weight inhibition rate≥80% to 100%)
2,CCCC[S+]([O-])c1c(S(C)(=O)=O)ccc(C(=O)Nc2nnco2)c1Cl (racemic) [Compound 3-278],A (Fresh weight inhibition rate≥80% to 100%)
3,CCC(C)Sc1c(S(C)(=O)=O)ccc(C(=O)Nc2nnco2)c1Cl (racemic) [Compound 3-282],A (Fresh weight inhibition rate≥80% to 100%)
4,CS(=O)(=O)c1ccc(C(=O)Nc2nnco2)c(Cl)c1[S+]([O-])CC1CC1 (racemic) [Compound 3-299],A (Fresh weight inhibition rate≥80% to 100%)
5,CS(=O)(=O)c1ccc(C(=O)Nc2nnco2)c(Cl)c1[S+]([O-])C1CC1 (racemic) [Compound 3-304],A (Fresh weight inhibition rate≥80% to 100%)
6,CS(=O)(=O)c1ccc(C(=O)Nc2nnco2)c(Cl)c1[S+]([O-])C1CCC1 (racemic) [Compound 3-309],A (Fresh weight inhibition rate≥80% to 100%)
7,CS(=O)(=O)c1ccc(C(=O)Nc2nnco2)c(Cl)c1[S+]([O-])C1CCCC1 (racemic) [Compound 3-314],A (Fresh weight inhibition rate≥80% to 100%)
8,CS(=O)(=O)c1ccc(C(=O)Nc2nnco2)c(Cl)c1[S+]([O-])C1CCCCC1 (racemic) [Compound 3-319],A (Fresh weight inhibition rate≥80% to 100%)
